Results as given in patent publication US11292821B2, “Peptides and combination of peptides for use in immunotherapy against lung cancer, including NSCLC, SCLC and other cancers” (Immatics Biotechnologies GmbH, priority 2017, dated 2022).

Assays:
CD8+ T cells = assay: In vitro T-cell priming assay with aAPCs (in vitro immunogenicity for MHC class I presented peptides); assay type: cell-based, human; conditions: in vitro immunogenicity, HLA B*44
HLA-B*44 = assay: MHC binding assay (UV-ligand exchange, β2m ELISA); design: species or system human; conditions: for Peptide exchange (peptide exchange yield, MHC class I binding score): UV-ligand exchange, β2m ELISA

Question: Which “Wells positive [%]” value (CD8+ T cells) does the source give for “342 (HEFSSPSHL; listed as Homo sapiens) [compound 342]” here?
Answer: “+” (<20% = +)

Question: And the “Peptide exchange (peptide exchange yield, MHC class I binding score)” value (from here on “Peptide exchange”) (HLA-B*44)?
Answer: “+++” (>50 =+++)

Question: Which results are given for “334 (AEDEPAAAHL; listed as Homo sapiens) [compound 334]”?
Answer: Wells positive [%] (CD8+ T cells): “+” (<20% = +); Peptide exchange (peptide exchange yield, MHC class I binding score) (HLA-B*44): “++” (>20% = ++)

Question: “322 (KEVDPAGHSY; listed as Homo sapiens) [compound 322]” was tested. Which “Wells positive [%]” value (CD8+ T cells) did it give?
Answer: “++” (20%-49% = ++)

Question: And the “Peptide exchange” value (HLA-B*44)?
Answer: “++” (>20% = ++)

Question: With “476 (AEEEIMKKI; listed as Homo sapiens) [compound 476]” as the substance, how does the “Wells positive [%]” value (CD8+ T cells) read?
Answer: “+” (<20% = +)

Question: And the “Peptide exchange” value (HLA-B*44)?
Answer: “++” (>20% = ++)

Question: How did the “Wells positive [%]” value (CD8+ T cells) turn out when “330 (KEGDLGGKQW; listed as Homo sapiens) [compound 330]” was run?
Answer: “+” (<20% = +)

Question: What about the “Peptide exchange” value (HLA-B*44) of the same substance?
Answer: “+++” (>50 =+++)

Question: What does the source list for “333 (AETLSTIQI; listed as Homo sapiens) [compound 333]”?
Answer: Wells positive [%] (CD8+ T cells): “+” (<20% = +); Peptide exchange (peptide exchange yield, MHC class I binding score) (HLA-B*44): “+++” (>50 =+++)

Question: For “320 (MEVDPIGHVYIF; listed as Homo sapiens) [compound 320]”, which “Wells positive [%]” value (CD8+ T cells) is on record?
Answer: “+” (<20% = +)

Question: And the “Peptide exchange” value (HLA-B*44)?
Answer: “++++” (>75% = ++++)

Question: For “321 (AEMLESVIKNY; listed as Homo sapiens) [compound 321]”, which “Peptide exchange” value (HLA-B*44) is on record?
Answer: “+++” (>50 =+++)

Question: Which “Peptide exchange” value (HLA-B*44) does the source give for “353 (GEIIMQNNW; listed as Homo sapiens) [compound 353]” here?
Answer: “++++” (>75% = ++++)

Question: For “355 (SDMVRFHLF; listed as Homo sapiens) [compound 355]”, which “Peptide exchange” value (HLA-B*44) is on record?
Answer: “++” (>20% = ++)

Question: How did the “Wells positive [%]” value (CD8+ T cells) turn out when “338 (SEGSEPALLHSW; listed as Homo sapiens) [compound 338]” was run?
Answer: “+” (<20% = +)

Question: And the “Peptide exchange” value (HLA-B*44)?
Answer: “+++” (>50 =+++)

Question: With “361 (SENLFFASF; listed as Homo sapiens) [compound 361]” as the substance, how does the “Peptide exchange” value (HLA-B*44) read?
Answer: “++++” (>75% = ++++)

Question: What does the source list for “328 (FEYDFLLQRI; listed as Homo sapiens) [compound 328]”?
Answer: Wells positive [%] (CD8+ T cells): “+” (<20% = +); Peptide exchange (peptide exchange yield, MHC class I binding score) (HLA-B*44): “++++” (>75% = ++++)

Question: With “360 (AEVPTGVII; listed as Homo sapiens) [compound 360]” as the substance, how does the “Peptide exchange” value (HLA-B*44) read?
Answer: “++++” (>75% = ++++)

Question: What does the source list for “477 (QENSYQSRL; listed as Homo sapiens) [compound 477]”?
Answer: Wells positive [%] (CD8+ T cells): “+” (<20% = +); Peptide exchange (peptide exchange yield, MHC class I binding score) (HLA-B*44): “+++” (>50 =+++)

Question: For “478 (SEIEQEIGSL; listed as Homo sapiens) [compound 478]”, which “Peptide exchange” value (HLA-B*44) is on record?
Answer: “+++” (>50 =+++)

Question: How did the “Peptide exchange” value (HLA-B*44) turn out when “349 (AEQDMRELTY; listed as Homo sapiens) [compound 349]” was run?
Answer: “+++” (>50 =+++)

Question: “329 (NEHPSNNW; listed as Homo sapiens) [compound 329]” was tested. Which “Wells positive [%]” value (CD8+ T cells) did it give?
Answer: “+” (<20% = +)

Question: What about the “Peptide exchange” value (HLA-B*44) of the same substance?
Answer: “+++” (>50 =+++)

Question: Which results are given for “331 (EDAQGHIW; listed as Homo sapiens) [compound 331]”?
Answer: Wells positive [%] (CD8+ T cells): “++” (20%-49% = ++); Peptide exchange (peptide exchange yield, MHC class I binding score) (HLA-B*44): “+++” (>50 =+++)

Question: Which results are given for “339 (SEPALLHSW; listed as Homo sapiens) [compound 339]”?
Answer: Wells positive [%] (CD8+ T cells): “++” (20%-49% = ++); Peptide exchange (peptide exchange yield, MHC class I binding score) (HLA-B*44): “+++” (>50 =+++)

Question: For “335 (KELEATKQY; listed as Homo sapiens) [compound 335]”, which “Peptide exchange” value (HLA-B*44) is on record?
Answer: “++” (>20% = ++)

Question: Which “Peptide exchange” value (HLA-B*44) does the source give for “485 (SEIEDSTKQVF; listed as Homo sapiens) [compound 485]” here?
Answer: “+++” (>50 =+++)

Question: Which “Wells positive [%]” value (CD8+ T cells) does the source give for “326 (QEMQHFLGL; listed as Homo sapiens) [compound 326]” here?
Answer: “+” (<20% = +)

Question: What about the “Peptide exchange” value (HLA-B*44) of the same substance?
Answer: “+++” (>50 =+++)

Question: How did the “binding to HLA allotype” value (HLA-B*44) turn out when “AEIEADRSY (listed as Homo sapiens) [SEQ ID NO: 531]” was run?
Answer: binds to HLA-B*44

Question: With “325 (QEQDVDLVQKY; listed as Homo sapiens) [compound 325]” as the substance, how does the “Wells positive [%]” value (CD8+ T cells) read?
Answer: “+” (<20% = +)

Question: What about the “Peptide exchange” value (HLA-B*44) of the same substance?
Answer: “++” (>20% = ++)

Question: With “336 (ASSSGPMRWW; listed as Homo sapiens) [compound 336]” as the substance, how does the “Peptide exchange” value (HLA-B*44) read?
Answer: “++” (>20% = ++)

Question: Which results are given for “337 (TENRYCVQL; listed as Homo sapiens) [compound 337]”?
Answer: Wells positive [%] (CD8+ T cells): “++” (20%-49% = ++); Peptide exchange (peptide exchange yield, MHC class I binding score) (HLA-B*44): “++++” (>75% = ++++)

Question: With “489 (SEIGKAVGF; listed as Homo sapiens) [compound 489]” as the substance, how does the “Peptide exchange” value (HLA-B*44) read?
Answer: “++++” (>75% = ++++)

Question: “351 (EEVNYINTF; listed as Homo sapiens) [compound 351]” was tested. Which “Peptide exchange” value (HLA-B*44) did it give?
Answer: “+++” (>50 =+++)

Question: “327 (YEIEARNQVF; listed as Homo sapiens) [compound 327]” was tested. Which “Peptide exchange” value (HLA-B*44) did it give?
Answer: “+++” (>50 =+++)

Question: How did the “Peptide exchange” value (HLA-B*44) turn out when “484 (AEVGFVRFF; listed as Homo sapiens) [compound 484]” was run?
Answer: “++++” (>75% = ++++)

Question: How did the “Wells positive [%]” value (CD8+ T cells) turn out when “323 (SEFMQVIF; listed as Homo sapiens) [compound 323]” was run?
Answer: “+” (<20% = +)

Question: What about the “Peptide exchange” value (HLA-B*44) of the same substance?
Answer: “+++” (>50 =+++)
